Data as given in ChEMBL document CHEMBL1201862, “PubChem BioAssay data set” (2004).
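Exposure lasted 48 hours, with cells grown in 96-well plates and compounds tested at five concentrations. GI50: concentration for 50% inhibition of growth.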 Activity calls are given as the source filed them. Rule as the data show it: active = GI50 up to about 1.1 µM and inactive = higher.

Assays:
Test in all cases: NCI anticancer screen, dose series, 48 h
[1] = system: CCRF-CEM
[2] = system: COLO 205
[3] = system: DMS-114
[4] = system: HL-60
[5] = system: HOP-62
[6] = system: HT-29
[7] = system: K562
[8] = system: KM12
[9] = system: LOX IMVI
[10] = system: NCI-H23
[11] = system: NCI-H460
[12] = system: OVCAR-3
[13] = system: OVCAR-5
[14] = system: OVCAR-8
[15] = system: SK-MEL-2
[16] = system: SN12C
[17] = system: SNB-19
[18] = system: SW-620

Structure (SMILES)	GI50 [1]	GI50 [2]	GI50 [3]	GI50 [4]	GI50 [5]	GI50 [6]	GI50 [7]	GI50 [8]	GI50 [9]	GI50 [10]	GI50 [11]	GI50 [12]	GI50 [13]	GI50 [14]	GI50 [15]	GI50 [16]	GI50 [17]	GI50 [18]
CC1=NN(C(=O)c2ccc(Cl)cc2)C(=O)/C1=C/c1cccc(O)c1	> 100 µM (inactive)	> 100 µM (inactive)	> 100 µM (inactive)	> 100 µM (inactive)	> 100 µM (inactive)	> 100 µM (inactive)	> 100 µM (inactive)	> 100 µM (inactive)	> 100 µM (inactive)	> 100 µM (inactive)	> 100 µM (inactive)	> 100 µM (inactive)	> 100 µM (inactive)	> 100 µM (inactive)	> 100 µM (inactive)	> 100 µM (inactive)	> 100 µM (inactive)	> 100 µM (inactive)
COc1cc(CC2C(=O)OCC2[C@@H](OC(C)=O)c2ccc3c(c2)OCO3)c(Br)c(OC)c1OC (some centres not stated)	44.7 µM (inactive)	36.8 µM (inactive)	28 µM (inactive)	35.6 µM (inactive)	> 100 µM (inactive)	35.9 µM (inactive)		31.5 µM (inactive)	> 100 µM (inactive)	68.9 µM (inactive)	48.3 µM (inactive)	59.2 µM (inactive)		> 100 µM (inactive)	61.4 µM (inactive)	> 100 µM (inactive)	> 100 µM (inactive)	58.3 µM (inactive)
NNC(=O)C(=O)N/N=C1\CCCC1C(=O)CCC(=O)Nc1cccc(Cl)c1 (configuration not stated)	> 100 µM (inactive)	> 100 µM (inactive)	> 100 µM (inactive)	> 100 µM (inactive)	> 100 µM (inactive)	> 100 µM (inactive)		> 100 µM (inactive)	> 100 µM (inactive)	> 100 µM (inactive)	> 100 µM (inactive)	> 100 µM (inactive)	> 100 µM (inactive)	> 100 µM (inactive)	> 100 µM (inactive)	> 100 µM (inactive)	> 100 µM (inactive)	> 100 µM (inactive)
CS(=O)(=O)ON1C(=O)c2ccc(N)cc2C1=O	16 µM (inactive)	49.5 µM (inactive)	> 74.5 µM (inactive)	17.5 µM (inactive)	> 55.5 µM (inactive)	> 79.3 µM (inactive)	42.8 µM (inactive)	> 100 µM (inactive)	> 72.6 µM (inactive)	> 100 µM (inactive)	> 100 µM (inactive)	> 100 µM (inactive)	> 100 µM (inactive)	21.7 µM (inactive)	> 100 µM (inactive)	> 100 µM (inactive)	> 100 µM (inactive)	52.1 µM (inactive)
COc1cc2nncc(Sc3cnnc4ccccc34)c2cc1OC	17.5 µM (inactive)	22.6 µM (inactive)	9.95 µM (inactive)	22.1 µM (inactive)	34.3 µM (inactive)	21.6 µM (inactive)	26 µM (inactive)	18.9 µM (inactive)	23.3 µM (inactive)	> 10 µM (inactive)	22.8 µM (inactive)	17.4 µM (inactive)	27 µM (inactive)		16.7 µM (inactive)		19.8 µM (inactive)	16.6 µM (inactive)
O=C(O)/C=C\C(=O)Nc1ccc(S(=O)(=O)c2ccc(NC(=O)/C=C\C(=O)O)cc2)cc1	> 100 µM (inactive)	> 100 µM (inactive)	> 100 µM (inactive)	> 100 µM (inactive)	> 100 µM (inactive)	> 100 µM (inactive)	> 100 µM (inactive)	> 100 µM (inactive)	> 100 µM (inactive)	> 100 µM (inactive)		> 100 µM (inactive)	> 100 µM (inactive)	> 100 µM (inactive)	> 100 µM (inactive)	> 100 µM (inactive)	> 100 µM (inactive)	> 100 µM (inactive)
Cc1ccc(S(=O)(=O)C(C#N)c2nc3ccccc3nc2N2CCOCC2)cc1 (configuration not stated)	13.9 µM (inactive)	30.3 µM (inactive)	22.5 µM (inactive)	> 10 µM (inactive)	20.5 µM (inactive)		> 10 µM (inactive)	18.3 µM (inactive)	16.6 µM (inactive)	21.8 µM (inactive)	17.9 µM (inactive)	33.8 µM (inactive)	> 100 µM (inactive)	> 10 µM (inactive)	33.1 µM (inactive)	28.2 µM (inactive)	28.6 µM (inactive)	26.9 µM (inactive)
COc1cc([C@@H]2c3cc4c(cc3[C@@H](NC(=O)c3ccccc3)C3COC(=O)[C@@H]32)OCO4)cc(OC)c1O (some centres not stated)	1.57 µM (inactive)	17.5 µM (inactive)	2.61 µM (inactive)	1.87 µM (inactive)	2.54 µM (inactive)	3.18 µM (inactive)	3.27 µM (inactive)	7.28 µM (inactive)	2.52 µM (inactive)	2.77 µM (inactive)	0.361 µM (active)	20.8 µM (inactive)	49.9 µM (inactive)	8.99 µM (inactive)	20.3 µM (inactive)	2.55 µM (inactive)	19.4 µM (inactive)	10.3 µM (inactive)
